Active and inactive are the calls of the source. How the calls were made is not given here.
Test system: CCRIS mutagenicity, Ames/micronucleus/aberration tests
Assay: CCRIS mutagenicity studies

CN(C)N=O
mutagenic call (End Point: IN VITRO CHROMOSOMAL ABERRATIONS, Test System: CHL/IU CELLS, Metabolic Activation: RAT, LIVER, S-9, PHENOBARBITAL AND 5,6-BENZOFLAVONE): active; positive (structural changes)
mutagenic call (End Point: IN VITRO CHROMOSOMAL ABERRATIONS, Test System: CHO CELLS, Metabolic Activation: NONE): inactive; negative
mutagenic call (End Point: IN VITRO MICRONUCLEUS, Test System: CHL/IU CELLS, Metabolic Activation: RAT, LIVER, S-9, PHENOBARBITAL AND 5,6-BENZOFLAVONE): active; positive
mutagenic call (End Point: IN VIVO MICRONUCLEUS, Test System: HEPATOCYTES, Species: RAT, Strain/Sex: FISHER 344 OR SD/MALE, Route: ORAL OR IP): active; positive
mutagenic call (End Point: IN VIVO MICRONUCLEUS, Test System: PERIPHERAL BLOOD RETICULOCYTES, Species: RAT, Strain/Sex: FISHER 344 OR SD/MALE, Route: ORAL OR IP): inactive; negative
mutagenic call (End Point: In vivo micronucleus, Test System: Liver, Species: Mouse, Strain/Sex: Big Blue/Male, Route: Oral): active; positive for laci mutation frequency in liver; high percentage of g:c to t:a t
mutagenic call (End Point: In vivo micronucleus, Test System: Micronucleated hepatocytes, Species: Rat, Strain/Sex: F344/Male, Route: Oral): active; positive (p<0.01)
mutagenic call (Test System: AMES SALMONELLA TYPHIMURIUM, Strain/Indicator: NM2000, Metabolic Activation: RAT, LIVER, S-9, ISONIAZID, Method: PREINCUBATION): active; positive
mutagenic call (Test System: AMES SALMONELLA TYPHIMURIUM, Strain/Indicator: NM2009, Metabolic Activation: RAT, LIVER, S-9, ISONIAZID, Method: PREINCUBATION): active; positive
mutagenic call (Test System: AMES SALMONELLA TYPHIMURIUM, Strain/Indicator: TA92, Metabolic Activation: MOUSE, LIVER, S-10, Method: PREINCUBATION): active; positive
mutagenic call (Test System: AMES SALMONELLA TYPHIMURIUM, Strain/Indicator: TA97, Metabolic Activation: NONE, Method: STANDARD PLATE): inactive; negative
mutagenic call (Test System: AMES SALMONELLA TYPHIMURIUM, Strain/Indicator: TA97, Metabolic Activation: RAT, LIVER, S-9, AROCLOR 1254, Method: STANDARD PLATE): inactive; negative
mutagenic call (Test System: AMES SALMONELLA TYPHIMURIUM, Strain/Indicator: TA98, Metabolic Activation: NONE, Method: STANDARD PLATE): inactive; negative
mutagenic call (Test System: AMES SALMONELLA TYPHIMURIUM, Strain/Indicator: TA98, Metabolic Activation: RAT, LIVER, S-9, AROCLOR 1254, Method: STANDARD PLATE): inactive; negative
mutagenic call (Test System: AMES SALMONELLA TYPHIMURIUM, Strain/Indicator: TA100, Metabolic Activation: HAMSTER, LIVER, S-9, AROCLOR 1254, NADPH GENERATING SYSTEM, CYTOSOL, Method: PREINCUBATION): active; positive
mutagenic call (Test System: AMES SALMONELLA TYPHIMURIUM, Strain/Indicator: TA100, Metabolic Activation: HAMSTER, LIVER, S-9, Method: PREINCUBATION): active; positive
mutagenic call (Test System: AMES SALMONELLA TYPHIMURIUM, Strain/Indicator: TA100, Metabolic Activation: HUMAN, LIVER, S-9, Method: PREINCUBATION): inactive; negative
mutagenic call (Test System: AMES SALMONELLA TYPHIMURIUM, Strain/Indicator: TA100, Metabolic Activation: MICROSOMES, CYTOSOL, Method: PREINCUBATION): active; positive
mutagenic call (Test System: AMES SALMONELLA TYPHIMURIUM, Strain/Indicator: TA100, Metabolic Activation: MOUSE, INTACT UROTHELIAL CELLS, Method: FLUCTUATION TEST): active; positive
mutagenic call (Test System: AMES SALMONELLA TYPHIMURIUM, Strain/Indicator: TA100, Metabolic Activation: MOUSE, LIVER, S-9, PHENOBARBITAL AND BETA-NAPHTHOFLAVONE, Method: PREINCUBATION): active; positive
mutagenic call (Test System: AMES SALMONELLA TYPHIMURIUM, Strain/Indicator: TA100, Metabolic Activation: MOUSE, LIVER, S-9, PHENOBARBITAL, BETA-NAPHTHOFLAVONE, ISOSAFROLE, ETHANOL, PREGNENOLONE AND 16ALPHA-CARBONITRILE, Method: PREINCUBATION): active; positive
mutagenic call (Test System: AMES SALMONELLA TYPHIMURIUM, Strain/Indicator: TA100, Metabolic Activation: NONE, Method: PREINCUBATION): inactive; negative
mutagenic call (Test System: AMES SALMONELLA TYPHIMURIUM, Strain/Indicator: TA100, Metabolic Activation: NONE, Method: STANDARD PLATE): inactive; negative
mutagenic call (Test System: AMES SALMONELLA TYPHIMURIUM, Strain/Indicator: TA100, Metabolic Activation: PIG, LIVER, S-9, Method: PREINCUBATION): inactive; negative
mutagenic call (Test System: AMES SALMONELLA TYPHIMURIUM, Strain/Indicator: TA100, Metabolic Activation: RABBIT, LIVER, S-9, Method: STANDARD PLATE): inactive; negative
mutagenic call (Test System: AMES SALMONELLA TYPHIMURIUM, Strain/Indicator: TA100, Metabolic Activation: RABBIT, LUNG, S-9, Method: STANDARD PLATE): inactive; negative
mutagenic call (Test System: AMES SALMONELLA TYPHIMURIUM, Strain/Indicator: TA100, Metabolic Activation: RABBIT, NASAL, S-9, Method: STANDARD PLATE): inactive; negative
mutagenic call (Test System: AMES SALMONELLA TYPHIMURIUM, Strain/Indicator: TA100, Metabolic Activation: RAT, INTACT UROTHELIAL CELLS, Method: FLUCTUATION TEST): active; positive
mutagenic call (Test System: AMES SALMONELLA TYPHIMURIUM, Strain/Indicator: TA100, Metabolic Activation: RAT, LIVER, S-9, AROCLOR 1254, (PREGNANT MARE SERUM), Method: PREINCUBATION): active; positive
mutagenic call (Test System: AMES SALMONELLA TYPHIMURIUM, Strain/Indicator: TA100, Metabolic Activation: RAT, LIVER, S-9, AROCLOR 1254, Method: PREINCUBATION): active; positive
